Measured values: PubChem BioAssay AID1918940 (Molecular Pharmacology Branch, DTP, NCI, 2023)

Test system: NCI-H211 complex spheroid viability
Test: Anticancer human tumor NCI-H211 cell line growth inhibition [LSD1];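 further: luminescent viability read after seven days of drug exposure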;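 on viability, T/C: 100% = DMSO vehicle control viability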
Conditions: for IC50: curve of first compound; for viability, T/C: stronger effect = lower value
Procedure, shortened: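 Multicellular complex spheroids of tumor cells with human endothelial cells (HUVEC) and mesenchymal stem cells; the LSD1 inhibitor iadademstat was combined with standard-of-care or investigational agents. Top concentration at or near clinical Cmax, half-log dilutions; final DMSO ≤0.25%.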

[1] = second compound 0.1 µM, first compound 0.0316 µM
[2] = second compound 0.1 µM, first compound 0.1 µM
[3] = second compound 0.1 µM, first compound 0.316 µM
[4] = second compound 0.1 µM, first compound 1 µM
[5] = second compound 0.1 µM, first compound 3.16 µM
[6] = second compound 0.1 µM, first compound 10 µM
[7] = second compound 0.316 µM, first compound 0.0316 µM
[8] = second compound 0.316 µM, first compound 0.1 µM
[9] = second compound 0.316 µM, first compound 0.316 µM
[10] = second compound 0.316 µM, first compound 1 µM
[11] = second compound 0.316 µM, first compound 3.16 µM
[12] = second compound 0.316 µM, first compound 10 µM
[13] = second compound 1 µM, first compound 0.0316 µM
[14] = second compound 1 µM, first compound 0.1 µM
[15] = second compound 1 µM, first compound 0.316 µM
[16] = second compound 1 µM, first compound 1 µM
[17] = second compound 1 µM, first compound 3.16 µM
[18] = second compound 1 µM, first compound 10 µM
[19] = second compound 3.16 µM, first compound 0.0316 µM
[20] = second compound 3.16 µM, first compound 0.1 µM
[21] = second compound 3.16 µM, first compound 0.316 µM
[22] = second compound 3.16 µM, first compound 1 µM
[23] = second compound 3.16 µM, first compound 3.16 µM
[24] = second compound 3.16 µM, first compound 10 µM
[25] = second compound 10 µM, first compound 0.0316 µM
[26] = second compound 10 µM, first compound 0.1 µM
[27] = second compound 10 µM, first compound 0.316 µM
[28] = second compound 10 µM, first compound 1 µM
[29] = second compound 10 µM, first compound 3.16 µM
[30] = second compound 10 µM, first compound 10 µM

| Structure (SMILES) | IC50 (second compound 0.1 µM) [µM] | IC50 (second compound 0.316 µM) [µM] | IC50 (second compound 1 µM) [µM] | IC50 (second compound 3.16 µM) [µM] | IC50 (second compound 10 µM) [µM] | viability, T/C [1] [%] | viability, T/C [2] [%] | viability, T/C [3] [%] | viability, T/C [4] [%] | viability, T/C [7] [%] | viability, T/C [8] [%] | viability, T/C [9] [%] | viability, T/C [10] [%] | viability, T/C [13] [%] | viability, T/C [14] [%] | viability, T/C [15] [%] | viability, T/C [16] [%] | viability, T/C [19] [%] | viability, T/C [20] [%] | viability, T/C [21] [%] | also measured |
| --- | --- | --- | --- | --- | --- | --- | --- | --- | --- | --- | --- | --- | --- | --- | --- | --- | --- | --- | --- | --- | --- |
| CC(C)c1c(-c2ccccc2)nc2c(C#N)c[nH]n2c1=O + NC1CCC(NC2CC2c2ccccc2)CC1 | > 10 | > 10 | > 10 | > 10 | < 0.0316 | 74.2 | 74.7 | 72 | 81.5 | 84.8 | 81.7 | 72.4 | 72.8 | 69.9 | 80.7 | 77.3 | 60.5 | 46.6 | 56 | 61.6 | viability, T/C [5]: 65.8%; viability, T/C [6]: 85.8%; viability, T/C [11]: 67.2%; viability, T/C [12]: 75.5%; viability, T/C [17]: 62.3%; viability, T/C [18]: 70%; viability, T/C [22]: 65.5%; viability, T/C [23]: 62%; viability, T/C [24]: 60.5%; viability, T/C [25]: 35.2%; viability, T/C [26]: 37.4%; viability, T/C [27]: 32.7%; viability, T/C [28]: 34.9%; viability, T/C [29]: 32.2%; viability, T/C [30]: 32.8% |
| CC1COCCN1c1cc(-c2ccnn2C)c2ccnc(-c3ccn[nH]3)c2n1 (stereo not given) + NC1CCC(NC2CC2c2ccccc2)CC1 | < 0.00316 | 0.00354 | 0.00326 | < 0.00316 | < 0.00316 | 3.03 | 1.88 | 1.99 | 1.97 | 5.04 | 2.3 | 1.83 | 2.11 | 3.22 | 2.14 | 1.98 | 2.52 | 2.82 | 2.03 | 1.63 | viability, T/C (second compound 0.1 µM, first compound 0.00316 µM): 47%; viability, T/C (second compound 0.1 µM, first compound 0.01 µM): 15.9%; viability, T/C (second compound 0.316 µM, first compound 0.00316 µM): 54.4%; viability, T/C (second compound 0.316 µM, first compound 0.01 µM): 12.7%; viability, T/C (second compound 1 µM, first compound 0.00316 µM): 51.1%; viability, T/C (second compound 1 µM, first compound 0.01 µM): 14.4%; viability, T/C (second compound 3.16 µM, first compound 0.00316 µM): 39.7%; viability, T/C (second compound 3.16 µM, first compound 0.01 µM): 13.1%; viability, T/C [22]: 2.4%; viability, T/C (second compound 10 µM, first compound 0.00316 µM): 18.2%; viability, T/C (second compound 10 µM, first compound 0.01 µM): 3.8%; viability, T/C [25]: 1.39%; viability, T/C [26]: 1%; viability, T/C [27]: 0.87%; viability, T/C [28]: 1.21% |
| COc1ccc([C@@H](O)c2cc(-c3ncnc4cc(N5CCOCC5)ccc34)c(F)cc2Cl)nn1 + NC1CCC(NC2CC2c2ccccc2)CC1 | 3.7 | 3.37 | 3.48 | 3.7 | < 0.0316 | 72.7 | 63 | 69.5 | 74.2 | 66.9 | 69.7 | 73.2 | 71.2 | 69.2 | 63.6 | 65.3 | 81.7 | 73.6 | 63.3 | 64 | viability, T/C [5]: 55.8%; viability, T/C [6]: 13.7%; viability, T/C [11]: 52.1%; viability, T/C [12]: 12.6%; viability, T/C [17]: 53.4%; viability, T/C [18]: 11.3%; viability, T/C [22]: 81.5%; viability, T/C [23]: 56.1%; viability, T/C [24]: 11.1%; viability, T/C [25]: 36.9%; viability, T/C [26]: 36.7%; viability, T/C [27]: 36.8%; viability, T/C [28]: 54.3%; viability, T/C [29]: 49%; viability, T/C [30]: 8.03% |
